Reference: PubChem BioAssay AID179 (DTP/NCI, 2004)
Activity calls are given as the source filed them.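 The calls were made as follows: active = compounds giving half or more protection of infected cells from virus-caused growth loss, again on retest; inactive = the rest.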

Test system: CEM cells HIV-1 protection, formazan growth assay
Experiment: NCI AIDS Antiviral Assay
Conditions: for IC50: measured here: growth of uninfected CEM cells
Procedure, shortened: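 Human CEM cells, uninfected and HIV-1-infected, received five drug concentrations, and growth was read by soluble formazan assay. Compounds giving at least 50% protection were retested; reproducible 100% protection defined confirmed active.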

Structure (SMILES)	EC50	IC50	outcome
CCCCCCCCCCOc1cc2c(=O)c(C(=O)OCC)c[nH]c2cc1OCC	> 200 µM	> 200 µM	
CC(=O)C(CN(C)Cc1ccccc1)C(c1ccccc1)c1c(O)c2ccccc2oc1=O (stereo not given)	> 38.9 µM	> 38.9 µM	
CCCN(CCC)C(=S)N/N=C(/C)c1ccccc1O	> 200 µM	15.8 µM	
NC1CS(=O)(=O)CC1O (stereo not given)	> 200 µM	> 200 µM	
CC(=O)OC1CC2C(C)(C)CCC[C@]2(C)C2=C1C(O)=C(C(C)C)C(=O)C2=O (stereo not given in full)			inactive
Cc1cc(C)nc(NC(=O)Nc2ccccc2)c1	> 200 µM	> 200 µM	
Clc1ccc(/C=N/N=C/c2ccc(Cl)cc2)cc1			inactive
Cc1cn(C2CCC(COP(=O)(OCC(=O)c3ccccc3)OCC(=O)c3ccccc3)O2)c(=O)[nH]c1=O (stereo not given)	19.5 µM	> 200 µM	
N#C/C(C(=O)Nc1ccccc1)=C(/N)N1CCCC1	> 200 µM	174 µM	
N#CC(C(=O)/C(=N/NC(=O)c1ccccc1O)C(C#N)c1ccc(Br)cc1)c1ccc(Br)cc1 (stereo not given)	> 23.4 µM	> 23.4 µM	
COc1cc2c(cc1OC)C(C1CC1)ON(C)CC2 (stereo not given)	158 µM	> 200 µM	
N#Cc1c(Cl)c2cc([N+](=O)[O-])ccc2n2c1nc1ccccc12	> 20 µM	0.813 µM	
CSCCC(NC(=O)Cc1ccc(C(=O)c2ccccc2)cc1)C(=O)N1CCN(CCCCN2c3ccccc3Sc3cc(N=[N+]=[N-])ccc32)CC1 (stereo not given)	> 200 µM	33.1 µM	
Cc1csc2nc(-c3ccncc3)cn12	> 417 µM	105 µM	
CCOC(=O)/N=N\C(=O)OCC	> 200 µM	> 200 µM	
CC1(C)OCC(C2OC3OC(C)(C)OC3C2=O)O1 (stereo not given)			inactive
[O]=[Sb]([OH])([OH])[c]1ccc(O)cc1	> 200 µM	33.9 µM	
O=[N+]([O-])c1ccc(SSc2ccc([N+](=O)[O-])cn2)nc1	> 200 µM	9.12 µM	
Oc1ccc2c(c1)-c1c(c3cc(O)ccc3n1CCN1CCOCC1)CC2			inactive
Brc1cc2nn(-c3ccccc3)nc2c2nonc12	> 200 µM	> 200 µM	
O=C(O)c1cc(=O)[nH]c(=O)[nH]1			inactive
COc1ccc(OC)c(-c2cn3c(n2)sc2ccccc23)c1	> 200 µM	50.1 µM	
CCc1cc2c(oc3cc(C)ccc32)c(=O)n1C	> 200 µM	97.7 µM	

Structure (SMILES)	EC50	IC50	outcome
COc1ccc(C(=O)N2CCN(c3ccc4c(c3)OCC(=O)N4)CC2)cc1OC	> 200 µM	> 200 µM	
COC(=O)C1=C(C(=O)[C@H](Cc2ccccc2)NC(=O)c2ccccc2)CCC1	> 95.5 µM	89.1 µM	
CCCCCCCCOc1ccc(C(=O)c2ccccc2)c(O)c1	> 200 µM	95.5 µM	
CC(=O)OCC1OC(N=[N+]=[N-])C(OC(C)=O)C(OC(C)=O)C1OC1OC(COC(C)=O)C(OC(C)=O)C(OC(C)=O)C1OC(C)=O (stereo not given)	> 53.7 µM	> 53.7 µM	
COc1cc(C2C(C(=O)Nc3ccccc3C)=C(C)NC(C)=C2C(=O)Nc2ccccc2C)ccc1O	> 363 µM	> 200 µM	
CCO[C@H]1CC(C)C2[C@H](CC3(C)C4CC(OC(C)=O)C5C(C)(C)[C@@H](OC6OCC(O)C(O)C6O)CC[C@@]56C[C@@]46CC[C@]23C)O1 (stereo not given in full)	> 41.7 µM	> 41.7 µM	
C[N+](C)(C)CCNP(=O)(Oc1ccccc1)c1ccccc1 (stereo not given)	> 562 µM	> 562 µM	
Oc1ccc2occ3c2c1CCC3			inactive
COc1c(CCl)cc(-c2cc(=O)c3ccccc3s2)cc1CCl	> 200 µM	> 200 µM	
O=P(c1ccccc1)(c1ccccc1)C1CC=C2CCCCCC2C1 (stereo not given)	> 5.37 µM	> 5.37 µM	
O=C(Cc1nc2ccccc2s1)Nc1cccc(C(F)(F)F)c1	> 21.4 µM	17.4 µM	
COc1c2ccoc2cc2oc(=O)ccc12	> 58.9 µM	> 58.9 µM	
CC(=O)O[C@]1(C(C)=O)CC[C@H]2[C@@H]3C[C@H](C)C4=CCCC[C@]4(C)[C@H]3CC[C@@]21C	> 100 µM	> 100 µM	
N#CCCN(C1=NN(C(=O)CC(=O)Nc2ccccc2Cl)C(c2ccccc2)C1)c1ccccc1Cl (stereo not given)	> 36.3 µM	> 36.3 µM	
CCN=C(C#N)NCC	> 708 µM	257 µM	
Cc1c(O)c2cccc(-c3ccccc3)c2oc1=O	> 200 µM	132 µM	
CCOC(=O)c1sc2nc(SC)nc3c2c1NCN3c1ccccc1Cl	> 200 µM	> 200 µM	
Cc1ccc(C)c(NC(=O)CC2SC(=Nc3ccccc3Cl)NC2=O)c1 (stereo not given)	> 67.6 µM	> 67.6 µM	
c1ccc(C(CNCCN2CCCCCC2)C2CCCCC2)cc1 (stereo not given)	> 100 µM	11.5 µM	
O=C(CC(=O)Nc1ccccc1Cl)NNC(Sc1ccccc1)c1cc(N=Nc2ccc(Br)cc2)ccc1O (stereo not given)	> 100 µM	1.91 µM	
O=C(O)CCCCCSCCCCCCSCCCCCC(=O)O	> 50.1 µM	> 50.1 µM	
O=C(CCc1cc(O)cc(O)c1)NCCc1cc(OCc2ccccc2)cc(OCc2ccccc2)c1			inactive
Nc1o[nH]c(=O)c1-c1ccccc1	> 200 µM	> 200 µM	

Structure (SMILES)	EC50	IC50	outcome
COC(=O)C(Cc1ccc(N(C)C)cc1)(NC(=O)c1ccccc1)P(=O)(OC)OC (stereo not given)	> 417 µM	398 µM	
O=C1c2ccccc2C(=O)N1CC(CN1C(=O)c2ccccc2C1=O)(C(=O)OCc1ccccc1)C(=O)OCc1ccccc1	> 200 µM	> 200 µM	
COC(=O)C(C(=O)C(=O)Nc1ccccc1C(C)=O)c1nc2ccc(Cl)cc2[nH]c1=O (stereo not given)	> 58.9 µM	> 58.9 µM	
CCCCS(=N)(=O)CC[C@H](N)C(=O)O (stereo not given in full)	> 562 µM	214 µM	
CCOC(=O)C(=[N+]=[N-])C(=O)Nc1nn2nnnc2c2ccccc12	> 200 µM	> 200 µM	
CCOC(=O)C1(C(C)=O)OC(=O)c2cnccc21 (stereo not given)	> 200 µM	> 200 µM	
Cc1csc2c(=O)n(C3OC(CO)C(O)C3O)c(=O)[nH]c12 (stereo not given)	> 200 µM	> 200 µM	
CC(=O)NNc1nc(C)c(C(=O)NNC(=O)C(=O)Nc2ccc(Cl)c([N+](=O)[O-])c2)s1	> 288 µM	107 µM	
C[C@@H]1CCC(=O)C(C(=O)CC2CC(=O)NC2=O)C1 (stereo not given in full)	> 200 µM	> 200 µM	
CCOC(=O)/C(=C\c1ccc[nH]1)C(=O)c1ccccc1	> 95.5 µM	> 95.5 µM	
CC1=CC(=O)C(C)(C2=NC(C)(C)CO2)c2ccccc21 (stereo not given)	51.3 µM	575 µM	
COc1cc(C(O)C(=O)c2nc3ccc([N+](=O)[O-])cc3[nH]c2=O)ccc1O (stereo not given)	> 251 µM	> 251 µM	
O=C(CN1CCOCC1)c1ccc2[nH]c(=O)oc2c1	> 200 µM	155 µM	
N#C/C(=C\c1ccc(O)c(O)c1)C(=O)NCCCCCCNC(=O)/C(C#N)=C/c1ccc(O)c(O)c1	> 200 µM	> 200 µM	
O=C1O/C(=C(/Br)c2ccc(Cl)c(Cl)c2)c2ccccc21	> 200 µM	11.7 µM	
O=C(O)c1cccc2cccc(C(=O)O)c12.[Hg]			inactive
COC(=O)c1ccc(S)c(S(=O)(=O)Nc2n[nH]c(N)n2)c1	> 200 µM	> 200 µM	
S=C1Cc2c(-c3ccc(Cl)cc3)cc(-c3ccccc3)nc2-c2ccccc2N1	> 200 µM	20.9 µM	
COc1ccc(NC(=O)Oc2ccc3c(C)cc(=O)oc3c2)c(OC)c1	> 52.5 µM	> 52.5 µM	
CC1(C)OOC(O)C=C1c1ccccc1 (stereo not given)	> 126 µM	> 126 µM	
CCC(=O)OC1CCn2c1nc1c2C(=O)C(C)=C(NC(C)=O)C1=N (stereo not given)	> 200 µM	3.55 µM	
C=CCN(c1cc(OC)c2[nH]c(C(=O)O)c(C)c2c1[N+](=O)[O-])S(C)(=O)=O	> 200 µM	> 200 µM	
COC(=O)C(=C/c1ccc(OC)cc1)/C(C(=O)O)=C(/C)c1ccccc1	> 708 µM		

Structure (SMILES)	EC50	IC50	outcome
CC(C)CCC1(O)O[C@H]2C[C@H]3[C@@H]4CCC5CC(=O)C=C[C@]5(C)[C@H]4CC[C@]3(C)[C@H]2[C@@H]1C (stereo not given in full)	> 151 µM	21.4 µM	
COc1ccc2nc3ccccc3c(NCCN(C)CCCl)c2c1	> 20 µM	1.32 µM	
CCCCCC12OCC(C)(C)N1O2 (stereo not given)	> 200 µM	126 µM	
O=C1c2cc(Oc3ccccc3)c(S(=O)(=O)O)c(S(=O)(=O)O)c2C(=O)c2c(O)ccc(O)c21	> 200 µM	72.4 µM	
Cc1ccc(-n2cc(-c3ccc(Cl)cc3)c3c(NN)ncnc32)cc1	> 200 µM	3.72 µM	
CCCCCCCCCCCCSS(=O)(=O)c1ccccc1	> 75.9 µM	> 75.9 µM	
CCOC(=O)c1ccccc1NNC(=O)CCC(=O)O	> 224 µM	219 µM	
COC(=O)NC[C@@H]1OCc2cc3c(cc2[C@]12C=CCCC2)OCO3	> 107 µM	2.63 µM	
OCCNc1nnc(NCCO)c2[nH]cnc12			inactive
N#C/C(=C\c1ccc[nH]1)C(=O)c1ccccc1	> 309 µM	> 309 µM	
C[C@H]1Oc2c3c(c4c(c2C(=O)[C@@H]1C)OCC=C4)OCC=C3	> 200 µM	89.1 µM	
CCOC(=O)C1=C(NC)OCC1=O			inactive
O=C([O-])c1ccc([I+]c2ccccc2)cc1			inactive
O=C1OC(c2ccccc2)=N/C1=C\c1ccc(Br)cc1	> 4.37 µM	> 4.37 µM	
O[Si](c1ccc(C(F)(F)F)cc1)(c1cccc(C(F)(F)F)c1)c1cccc(C(F)(F)F)c1	> 200 µM	10.5 µM	
c1ccc2[nH]c(CSc3nc4ccccc4[nH]3)nc2c1	> 200 µM	> 200 µM	
CC(C)Sc1nncc(/C(N)=N/O)n1	> 200 µM	> 200 µM	
O=Nc1c(O)ccc2ccccc12	> 200 µM	2.4 µM	
CN(C)CCCN=C(N)N	> 200 µM	> 200 µM	
CCCCCCCCCCCCCCCC(=O)OCCOCCOCCOCCOCCOC(=O)CCCCCCCCCCCCCCC			inactive
COC1=C(C)C(=O)C(=O)c2ccc(C)nc21			inactive
Cc1nn(C)c2nc(=O)n(C)c(=O)c-2[n+]1[O-]	> 200 µM	26.9 µM	
O=C(O)c1ccccc1CC(Cc1ccc2c(c1)CCC2)C(=O)O (stereo not given)	> 200 µM	> 200 µM	
